For the assay, the system named is Mycobacterium tuberculosis variant bovis. Briefly: Antibacterial activity against Mycobacterium bovis. It is filed as functional.

Converted amounts (≈) assume the structure as drawn.

Molecule `Cc1cn([C@@H]2C[C@H](O)[C@@H](CNC(=S)Nc3ccc(Cl)c(Cl)c3)O2)c(=O)[nH]c1=O` showed an MIC of 25 µg/mL (≈ 56.1 µM).

As usually defined, the MIC is the smallest concentration in the dilution series that meets the test's criterion for growth inhibition. Read a high MIC as a need for much substance.

The record behind these values is ChEMBL document CHEMBL1955766, “Structure guided development of novel thymidine mimetics targeting Pseudomonas aeruginosa thymidylate kinase: from hit to lead generation” (J Med Chem, 2012).
